Data reported in PubChem BioAssay AID192 (DTP/NCI, 2004).
Toxic doses and inconclusive results are not listed.

Tested on: BDF1 mice, B16 melanoma ip, median survival T/C
Assay: NCI In Vivo Anticancer Drug Screen. Data for tumor model B16 Melanoma (intraperitoneal) in B6D2F1 (BDF1) mice
Conditions: endpoint: median survival time, higher = longer survival
In short: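 Each result divides a survival or tumor-size measurement in the compound-treated group by the same measurement in the vehicle group.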

[1] = dose: 100.0 mg/kg/injection, schedule: Q04DX003 (ip), vehicle: Klucel (hydroxypropylcellulose) (HPC)
[2] = dose: 200.0 mg/kg/injection, schedule: Q04DX003 (ip), vehicle: Klucel (hydroxypropylcellulose) (HPC)
[3] = dose: 100.0 mg/kg/injection, schedule: Q01DX009 (ip), vehicle: saline with Tween-80
[4] = dose: 200.0 mg/kg/injection, schedule: Q01DX009 (ip), vehicle: saline with Tween-80
[5] = dose: 1.25 mg/kg/injection, schedule: Q01DX009 (ip), vehicle: saline with Tween-80
[6] = dose: 2.5 mg/kg/injection, schedule: Q01DX009 (ip), vehicle: saline with Tween-80
[7] = dose: 50.0 mg/kg/injection, schedule: Q01DX009 (ip), vehicle: saline with Tween-80
[8] = dose: 25.0 mg/kg/injection, schedule: Q01DX009 (ip), vehicle: saline with Tween-80
[9] = dose: 100.0 mg/kg/injection, schedule: Q01DX009 (ip), vehicle: Klucel (hydroxypropylcellulose) (HPC)
[10] = dose: 200.0 mg/kg/injection, schedule: Q01DX009 (ip), vehicle: Klucel (hydroxypropylcellulose) (HPC)

CC(C)(C)c1cc(C[P+](c2ccccc2)(c2ccccc2)c2ccccc2)cc(C(C)(C)C)c1O
T/C (dose: 0.78 mg/kg/injection, schedule: Q01DX009 (ip), vehicle: saline): 111 % of control
T/C (dose: 1.56 mg/kg/injection, schedule: Q01DX009 (ip), vehicle: saline): 109 % of control
T/C (dose: 3.12 mg/kg/injection, schedule: Q01DX009 (ip), vehicle: saline): 104 % of control
T/C (dose: 3.25 mg/kg/injection, schedule: Q04DX003 (ip), vehicle: saline): 94 % of control
T/C (dose: 4.6 mg/kg/injection, schedule: Q01DX009 (ip), vehicle: saline): 86 % of control

COc1cc(Cl)ccc1C
T/C (dose: 37.5 mg/kg/injection, schedule: Q01DX001 (ip), vehicle: Klucel (hydroxypropylcellulose) (HPC)): 103 % of control
T/C (dose: 75.0 mg/kg/injection, schedule: Q01DX001 (ip), vehicle: Klucel (hydroxypropylcellulose) (HPC)): 182 % of control
T/C (dose: 150.0 mg/kg/injection, schedule: Q01DX001 (ip), vehicle: Klucel (hydroxypropylcellulose) (HPC)): 116 % of control
T/C (dose: 300.0 mg/kg/injection, schedule: Q01DX001 (ip), vehicle: Klucel (hydroxypropylcellulose) (HPC)): 100 % of control

CCN(CC)N=Nc1ccccc1-c1nc(N)c2ccccc2n1
T/C (dose: 25.0 mg/kg/injection, schedule: Q04DX003 (ip), vehicle: Klucel (hydroxypropylcellulose) (HPC)): 94 % of control
T/C (dose: 50.0 mg/kg/injection, schedule: Q04DX003 (ip), vehicle: Klucel (hydroxypropylcellulose) (HPC)): 109 % of control
T/C [1]: 96 % of control
T/C [2]: 103 % of control

C/C=C1\C[C@@H]2C(OC)Nc3cc(O)c(OC)cc3C(=O)N2C1 (stereo partly specified)
T/C (dose: 0.03 mg/kg/injection, schedule: Q01DX009 (ip), vehicle: saline): 100 % of control
T/C (dose: 0.06 mg/kg/injection, schedule: Q01DX009 (ip), vehicle: saline): 112 % of control
T/C (dose: 0.12 mg/kg/injection, schedule: Q01DX009 (ip), vehicle: saline): 115 % of control
T/C (dose: 0.12 mg/kg/injection, schedule: Q01DX009 (ip), vehicle: suspension in saline): 105 % of control
T/C (dose: 0.25 mg/kg/injection, schedule: Q01DX009 (ip), vehicle: saline): 112 % of control
T/C (dose: 0.25 mg/kg/injection, schedule: Q01DX009 (ip), vehicle: suspension in saline): 96 % of control
T/C (dose: 0.5 mg/kg/injection, schedule: Q01DX009 (ip), vehicle: saline): 115 % of control
T/C (dose: 0.5 mg/kg/injection, schedule: Q01DX009 (ip), vehicle: suspension in saline): 96 % of control

CCC1CN2CCc3cc(OC)c(OC)cc3C2CC1CC1c2cc(OC)c(OC)cc2CCN1C(=O)C(Cc1c[nH]c2ccccc12)NC(=O)OC(C)(C)C (stereo unspecified)
T/C (dose: 8.0 mg/kg/injection, schedule: Q04DX003 (ip), vehicle: saline with Tween-80): 102 % of control
T/C (dose: 16.0 mg/kg/injection, schedule: Q04DX003 (ip), vehicle: saline with Tween-80): 102 % of control
T/C (dose: 32.0 mg/kg/injection, schedule: Q04DX003 (ip), vehicle: saline with Tween-80): 100 % of control
T/C (dose: 64.0 mg/kg/injection, schedule: Q04DX003 (ip), vehicle: saline with Tween-80): 110 % of control
T/C (dose: 128.0 mg/kg/injection, schedule: Q04DX003 (ip), vehicle: saline with Tween-80): 89 % of control

Cc1c(Cl)cccc1NC(=O)c1ccc([N+](=O)[O-])cc1
T/C [3]: 105 % of control
T/C [4]: 100 % of control

CCCCCc1cc(/C=C2/N=C(c3ccc[nH]3)C=C2OC)[nH]c1C
T/C (dose: 0.25 mg/kg/injection, schedule: Q01DX009 (ip), vehicle: saline with Tween-80): 98 % of control
T/C (dose: 0.5 mg/kg/injection, schedule: Q01DX009 (ip), vehicle: saline with Tween-80): 100 % of control
T/C (dose: 1.0 mg/kg/injection, schedule: Q01DX009 (ip), vehicle: saline with Tween-80): 102 % of control
T/C (dose: 2.0 mg/kg/injection, schedule: Q01DX009 (ip), vehicle: saline with Tween-80): 107 % of control
T/C (dose: 4.0 mg/kg/injection, schedule: Q01DX009 (ip), vehicle: saline with Tween-80): 110 % of control

COC1=C2CC(C)CC(OC)C(O)C(C)/C=C(\C)C(OC(N)=O)C(OC)/C=C\C=C(/C)C(=O)NC(=C(/C=N/N3CCOCC3)C1=O)C2=O (stereo unspecified)
T/C (dose: 12.5 mg/kg/injection, schedule: Q01DX005 (ip), vehicle: other): 106 % of control
T/C (dose: 25.0 mg/kg/injection, schedule: Q01DX005 (ip), vehicle: other): 97 % of control
T/C (dose: 100.0 mg/kg/injection, schedule: Q01DX005 (ip), vehicle: other): 106 % of control
T/C (dose: 200.0 mg/kg/injection, schedule: Q01DX005 (ip), vehicle: other): 89 % of control

CSc1cc(=O)n2c3ccccc3c3ccnc1c32
T/C (dose: 0.63 mg/kg/injection, schedule: Q01DX009 (ip), vehicle: saline with Tween-80): 104 % of control
T/C [5]: 110 % of control
T/C [6]: 101 % of control
T/C (dose: 5.0 mg/kg/injection, schedule: Q01DX009 (ip), vehicle: saline with Tween-80): 108 % of control

O=C(NC(Cc1ccccc1)C(=O)NC(Cc1c[nH]c2ccccc12)C(=O)O)OCc1ccccc1 (stereo unspecified)
T/C [7]: 98 % of control
T/C [3]: 100 % of control
T/C [4]: 94 % of control

COc1ccc(/C=C2\CCC3C(=O)CCCC3(C)C2=O)cc1 (stereo unspecified)
T/C [1]: 94 % of control
T/C [2]: 92 % of control
T/C (dose: 400.0 mg/kg/injection, schedule: Q04DX003 (ip), vehicle: Klucel (hydroxypropylcellulose) (HPC)): 89 % of control

CCCCCCCCCCCCCCCc1ccc(C(=O)C[n+]2ccccc2)cc1
T/C (dose: 3.12 mg/kg/injection, schedule: Q01DX009 (ip), vehicle: saline with Tween-80): 102 % of control
T/C (dose: 6.25 mg/kg/injection, schedule: Q01DX009 (ip), vehicle: saline with Tween-80): 100 % of control
T/C (dose: 12.5 mg/kg/injection, schedule: Q01DX009 (ip), vehicle: saline with Tween-80): 95 % of control
T/C [8]: 93 % of control

CC(=O)CC(=O)Nc1cc(Cl)ccc1C
T/C (dose: 50.0 mg/kg/injection, schedule: Q01DX009 (ip), vehicle: Klucel (hydroxypropylcellulose) (HPC)): 105 % of control
T/C [9]: 92 % of control
T/C [10]: 94 % of control

Nc1ccc(Nc2ccc([N+](=O)[O-])cc2[N+](=O)[O-])cc1
T/C (dose: 50.0 mg/kg/injection, schedule: Q04DX003 (ip), vehicle: gum acacia): 104 % of control
T/C (dose: 100.0 mg/kg/injection, schedule: Q04DX003 (ip), vehicle: gum acacia): 97 % of control
T/C (dose: 200.0 mg/kg/injection, schedule: Q04DX003 (ip), vehicle: gum acacia): 95 % of control

CNCCN(C)Cc1ccccc1
T/C (dose: 25.0 mg/kg/injection, schedule: Q01DX009 (ip), vehicle: saline): 97 % of control
T/C (dose: 50.0 mg/kg/injection, schedule: Q01DX009 (ip), vehicle: saline): 94 % of control
T/C (dose: 100.0 mg/kg/injection, schedule: Q01DX009 (ip), vehicle: saline): 89 % of control

CC(C)c1c[nH]c(=O)[nH]c1=O
T/C [9]: 100 % of control
T/C [10]: 92 % of control
T/C (dose: 400.0 mg/kg/injection, schedule: Q01DX009 (ip), vehicle: Klucel (hydroxypropylcellulose) (HPC)): 95 % of control

[Cl][Pt+2][Cl].[NH-]CC(=O)O.[NH-]CC(=O)O
T/C [8]: 97 % of control
T/C [7]: 92 % of control

Cc1cc([NH-])c([NH-])cc1C.[Cl][Pt+2][Cl]
T/C [5]: 108 % of control
T/C [6]: 123 % of control
T/C (dose: 10.0 mg/kg/injection, schedule: Q01DX009 (ip), vehicle: saline with Tween-80): 161 % of control

NCCCNCCCCNC(=O)C(O)NC(=O)CCCCCCN=C(N)N (stereo unspecified)
T/C (dose: 6.0 mg/kg/injection, schedule: Q01DX009 (ip), vehicle: saline): 96 % of control
T/C (dose: 12.0 mg/kg/injection, schedule: Q01DX009 (ip), vehicle: saline): 96 % of control
T/C (dose: 24.0 mg/kg/injection, schedule: Q01DX009 (ip), vehicle: saline): 93 % of control
T/C (dose: 48.0 mg/kg/injection, schedule: Q01DX009 (ip), vehicle: saline): 100 % of control

CCCCCCCCCCCCCCP(I)(N(C)C)(N(C)C)N(C)C
T/C (dose: 0.1 mg/kg/injection, schedule: Q01DX009 (ip), vehicle: saline with Tween-80): 90 % of control
T/C (dose: 0.2 mg/kg/injection, schedule: Q01DX009 (ip), vehicle: saline with Tween-80): 94 % of control
T/C (dose: 0.38 mg/kg/injection, schedule: Q01DX009 (ip), vehicle: saline with Tween-80): 88 % of control
T/C (dose: 0.4 mg/kg/injection, schedule: Q01DX009 (ip), vehicle: saline with Tween-80): 93 % of control
